In the SangsterLogP compilation:

Assay: method code SF-AS, from DOI: 10.1080/01483918708066826

Row | Compound | logP
1 | O=C(O)Cc1ccc(-n2cccc2)cc1 | 0.76
2 | O=C(O)Cn1cccc1 | 0.7
3 | O=C(O)c1ccccc1-n1cccc1 | 2.04
4 | O=C(O)C(c1ccccc1F)n1cccc1 (stereo not given) | 2.49
5 | O=C(O)C(c1ccccc1)n1cccc1 (stereo not given) | 1.57

Other lines, results leading:

Row | logP | Compound
6 | 2.3 | O=C(O)C(c1ccc(Cl)cc1)n1cccc1 (stereo not given)
7 | 2.04 | O=C(O)C(Cc1ccc(F)cc1)n1cccc1 (stereo not given)
8 | 1.56 | O=C(O)C(Cc1ccc(O)cc1)n1cccc1 (stereo not given)
9 | 2.34 | O=C(O)C(Cc1ccccc1)n1cccc1 (stereo not given)
10 | 2.08 | O=C(O)C(Cc1ccc(Cl)cc1)n1cccc1 (stereo not given)
